Tests used:
HCV replicon gt1a_H77 = assay: Cell-based HCV replicon assay (TaqMan), genotype 1a (H77); conditions: Hepatitis C virus, 72 h, replicon 1a (H77); replicon RNA by TaqMan, day 3
In short: (§1)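 Replicon cells seeded at 5000 cells/well with compound (10 serial 2-fold dilutions from 250 μM to 1 μM top dose; 0.5% DMSO, 5% FBS) and lysed on day 3. Replicon RNA quantified by multiplex TaqMan RT-PCR (NS5B amplicon, GAPDH control); ΔCT versus concentration fitted to sigmoid dose-response. Chimeras carry patient-isolate NS5A.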

[1] = Pharmacokinetic analysis in monkeys; type: in vivo, male cynomolgus monkeys; conditions: Monkey, dihydrochloride salt, 2 mpk/PO, 1 mpk/IV
Method: Various pharmacokinetic parameters for compound 56 were measured in rats, dogs and monkeys as described below.
Following an overnight fast, male cynomolgus monkeys were dosed with the dihydrochloride salt of compound 56 orally at 2 mg/kg as a suspension in 0.4% hydroxylpropyl methylcellulose (HPMC) or intravenously at 1 mg/kg as a solution in 20% hydroxypropyl-β-cyclodextrin (20% HPβCD). For oral dosing, the animals dosed by oro-gastric intubation. Monkeys were fed approximately 1 hour before dosing and 4 hours after dosing. Blood samples were collected from the saphenous and/or cephalic vein at 0.25, 0.5, 1, 2, 4, 6, 8, 12, 24, 48, and 72 (PO), and 0.167, 0.25, 0.5, 1, 2, 4, 6, 8, 12, 24, 48, and 72 hrs (IV) post-dosing and centrifuged to generate plasma. The plasma samples were stored at […] until analysis.
Collected plasma samples were analyzed for the presence of compound 56 using LC-MS/MS as described below.
The HPLC/API-MS/MS system for the example data consisted of a HPLC pumping system and a auto sampler with the sample tray refrigeration option connected directly to a triple quadrupole mass spectrometer with an API source. Typical HPLC methods for the example data was based on a fast gradient of two solvents: solvent A consisted of 0.1% formic acid in water, and solvent B consisted of 0.1% formic acid in acetonitrile. A fast linear gradient (start at 90% A for 0.2 min, ramp to 95% B from 0.2 to 0.5 min, hold at 95% B […], then ramp back to 90% A from 1.0 to 1.1 min, then hold at, […] from 1.1 to 1.2 min) was used. The flow rate for the HPLC system was set to 1 mL/min throughout the HPLC gradient; the HPLC column was a Halo C18 column (2.7 micron particle size, 50×2.1 mm). The example compounds were analyzed by positive ion atmospheric pressure chemical ionization tandem mass spectrometry (APCI-MS/MS). As a general procedure, selected reaction monitoring (SRM) methods were developed for each compound prior to analysis of the plasma samples. Normally, the individual SRM transitions were based on a fragmentation from the protonated molecule ([MH].) to a characteristic product ion.
Using the methods described above, the following pharmacokinetic parameters were calculated in rats, dogs and monkeys and the results are summarized in the table below.

[2] = test system: HCV chimeric replicon with NS5A of genotype 2b (AB03090); assay: Cell-based HCV replicon assay (TaqMan), chimeric replicon genotype 2b (AB03090); conditions: Hepatitis C virus, 72 h, read-out: HCV replicon EC50 2b (AB03090), chimeric replicon 2b (AB03090); replicon RNA by TaqMan, day 3
Method: Measurement of inhibition by compounds of the present invention was performed using the HCV replicon system. Several different replicons encoding different HCV genotypes or mutations were used. In addition, potency measurements were made using different formats of the replicon assay, including different ways of measurements and different plating formats. See Jan M. Vrolijk et al., A replicons-based bioassay for the measurement of interferons in patients with chronic hepatitis C, 110 J. VIROLOGICAL METHODS 201 (2003); Steven S. Carroll et al., Inhibition of Hepatitis C Virus RNA Replication by 2′-Modified Nucleoside Analogs, 278(14) J. BIOLOGICAL […] 11979 (2003). However, the underlying principles are common to all of these determinations, and are outlined below.
Compounds of the present invention were assayed for cell-based anti-HCV activity using the following protocol. Replicon cells were seeded at 5000 cells/well in 96-well collagen I-coated Nunc plates in the presence of the test compound. Various concentrations of test compound, typically in 10 serial 2-fold dilutions, were added to the assay mixture, with the starting concentration ranging from 250 μM to 1 μM. The final concentration of DMSO was 0.5%, fetal bovine serum was 5%, in the assay media. Cells were harvested on day 3 by the addition of 1× cell lysis buffer (Ambion cat #8721). The replicon RNA level was measured using real time PCR (TaqMan® assay). The amplicon was located in 5B. The PCR primers were: 5B.2F, […] (SEQ. ID NO. 1); 5B.2R, […] (SEQ. ID NO. 2); the probe sequence was FAM-labeled […] (SEQ. ID NO. 3). GAPDH RNA was used as endogenous control and was amplified in the same reaction as NS5B (multiplex PCR) using primers and VIC-labeled probe recommended by the manufacturer (PE Applied Biosystem). The real-time RT-PCR reactions were run on ABI PRISM 7900HT Sequence Detection System using the following program: 48° C. for 30 minutes, 95° C. for 10 minutes, 40 cycles of 95° C. for 15 sec, 60° C. for 1 minute. The ΔCT values (CT5B-CTGAPDH) were plotted against the concentration of test compound and fitted to the sigmoid dose-response model using XLfit4 (MDL). […] Alternatively, to quantitate the absolute amount of replicon RNA, a standard curve was established by including serially diluted T7 transcripts of replicon RNA in the Taqman assay. All TaqMan® reagents were from PE Applied Biosystems. Such an assay procedure was described in detail in e.g. Malcolm et al., Antimicrobial Agents and Chemotherapy 50: 1013-1020 (2006).
Wherein gt1a_H77 was prepared as described in Yi et al., J Virol. 2004, 78(15):7904-15; gt1b_con1 was prepared as described in Lohmann et al., Science 1999, 285(5424):110-3; and gt2a_JFH was prepared as described in Kato et al., Gastroenterology. 2003, 125(6):1808-17. Chimeric replicons contain NS5A from patient isolates of genotypes 1a, 1b, 2b, 3a and 4a as indicated.

[3] = test system: HCV chimeric replicon with NS5A of genotype 3a (NC00982); assay: Cell-based HCV replicon assay (TaqMan), chimeric replicon genotype 3a (NC00982); conditions: Hepatitis C virus, 72 h, read-out: HCV replicon EC50 3a (NC00982), chimeric replicon 3a (NC00982); replicon RNA by TaqMan, day 3
In short: as §1

Compound: COC(=O)N[C@H](C(=O)N1CC(F)(F)C[C@H]1c1ncc(-c2ccc(-c3ccc4c(ccc5nc([C@@H]6C[Si](C)(C)CN6C(=O)[C@@H](NC(=O)OC)C(C)C)[nH]c54)c3)cc2)[nH]1)C(C)C [Compound 56]
- EC50 (HCV replicon gt1a_H77): 0.016 nM
- Effective Half-Life [1]: 17 h
- Systemic Clearance [1]: 1.2 mL/min/kg
- Volume of Distribution [1]: 1.7 L/kg
- Oral Bioavailability ([1]; dose-normalized AUC between PO and IV): 11.7%
- EC50 [2]: 48 nM
- EC50 [3]: 0.35 nM

Source: patent US8609635B2, “Fused tricyclic silyl compounds and methods of use thereof for the treatment of viral diseases” (priority 2010, dated 2013)
